How the values were obtained:
[1] = tested on: rat carrageenan paw edema; test: rat carrageenan paw edema assay; assay type: in vivo, rat (male Sprague-Dawley); conditions: for ED50: Rattus norvegicus, po, 3 h, read-out: Oral ED50 (95% C.L.); for % Inhibition of edema at 50 mg/kg (peroral): 1 hour prior to carrageenan, edema at 3 hours
Procedure: The compounds of the invention are tested in the rat carrageenan paw edema assay to determine their ability to inhibit the acute inflammatory response. This assay is carried out as follows: 140-180 gm male Sprague-Dawley rats, in groups of 6 animals, are injected subcutaneously in the right paw with 0.1 ml of 1% carrageenan at zero time. Mercury plethysmographic readings (ml) of the paw are made at zero time and 3 hours later. Test compounds are suspended or dissolved in 0.5% methylcellulose and given perorally 1 hour prior to carrageenan administration. The increase in paw volume (edema in ml.) produced by the carrageenan is measured. […] Unpaired Student's t-test is used to determine statistical significance.

[2] = tested on: IL 1-induced release of neutral protease from rabbit articular chondrocytes; test: inhibition of IL 1-induced release of neutral protease from rabbit articular chondrocytes (azocoll neutral protease assay); assay type: cell-based; conditions: Oryctolagus cuniculus, Chondrocyte, human IL 1, 24 h, ± S.D., read-out: % Inhibition of Protease Secretion
Procedure: The ability of the compounds of the inventions to inhibit interleukin 1 is measured by the ability of the test compounds to inhibit the IL 1-induced release of neutral protease from rabbit articular chondrocytes.
This assay is carried out as follows:
Isolation of rabbit chondrocytes:
Male New Zealand White rabbits are anesthetized with 50 mg/kg of ketamine (i.m.) and killed by an intracardiac injection of 3 mls. of Nembutal. The knee joints of both legs are resected and the articular surfaces are exposed. Cartilage slices are obtained using a scalpel and are placed in a tissue culture dish (100 mm diameter) containing 10 mls of Hank's balanced salt solution (HBSS). The chondrocytes within the cartilage slices are then liberated by a series of enzyme digestions. The slices are incubated for 10 min. at 37° C. in 0.05% hyaluronidase (Sigma H-3884), rinsed with HBSS and incubated with 0.2% trypsin (Sigma T-2395) for 10 min. at 37° C. The slices are rinsed again and incubated for 10 mins. at 37° C. with 1.2% collagenase (Sigma C-5138). The slices are then rinsed again with HBSS and resuspended in 10 ml of Ham's F-12 medium containing 10% fetal bovine calf serum (FCS) and 0.2 % collagenase and incubated overnight at 37° C. in a 5% CO2 incubator. The next day, the medium containing the digested cartilage fragments and liberated chondrocytes is transferred to a 15 ml centrifuge tube and the cells are collected by centrifugation and washed twice and resuspended in Ham's F-12 medium. The cells are then plated into 24-well tissue culture plates (2×10^5 cells/well) and incubated at 37° C. until confluent (usually 4-6 days).
Stimulation of chondrocytes and drug treatment:
The confluent chondrocytes are rinsed twice with serum-free Ham's F-12 medium and 1 ml is added to each well. Fifty μl of purified human IL 1 (100 Units/ml; Genzyme Corporation, Boston, MA) is then added to stimulate these cells to secrete neutral protease. To measure drug effects, the cells are treated with test compound 10 min. prior to addition of IL 1. The standard screening dose is 10 μM. Twenty-four hours after IL 1 stimulation, supernatant fluids are collected and assayed for neutral protease activity.
The neutral protease activity of chondrocyte supernatant fluids is determined by their ability to degrade an insoluble protease substrate, azocoll (Sigma). Supernatants are treated for 10 min. at room temperature with 350 μM p-aminophenylmurcuric acetate to activate the latent enzyme. Three hundred μl of supernatant is then mixed with 500 μl of a 20 mg/ml suspension of azocoll and incubated at 37° C. for 18-24 hrs. with gentle rocking. The mixtures are centrifuged and the amount of substrate hydrolyzed is determined by measuring the absorbance of the supernatant at 520 nm.
Drug effects are calculated as the % change in enzyme activity (absorbance)by supernatants from drug-treated chondrocytes relative to enzyme activity of supernatants from vehicle-treated chondrocytes as follows:
% Inhibition of Protease Secretion= [formula]

Row | Structure (SMILES) | inhibition at 10 µM [2] [%] | further results
1 | CC(=O)Oc1ccccc1C(=O)O [Aspirin, reference compound] |  | ED50 [1]: 145 mg/kg
2 | N#Cc1ccc(NCCc2nc3cc(Cl)ccc3c3nn(-c4ccccc4)cc23)cc1 [Example 1, 4-[[2-(7-Chloro-2-phenyl-2H-pyrazolo-[4,3-c]quinolin-4-yl)ethyl]amino]benzonitrile] | 88 ± 2 | inhibition at 0.1 µM [2]: 60 ± 13%; inhibition at 1 µM [2]: 75 ± 5%; % Inhibition of edema at 50 mg/kg (peroral) [1]: 38%
3 | CCOC(=O)c1ccc(NCCc2nc3cc(Cl)ccc3c3nn(-c4ccccc4)cc23)cc1 [Example 2, 4-[[2-(7-Chloro-2-phenyl-2H-pyrazolo[4,3-c]quinolin-4-yl)ethyl]amino]benzoic acid ethyl ester] | 85 ± 3 | inhibition at 0.1 µM [2]: 41 ± 10%; inhibition at 1 µM [2]: 70 ± 4%; % Inhibition of edema at 50 mg/kg (peroral) [1]: 32%
4 | Clc1ccc2c(c1)nc(CCNc1ncccn1)c1cn(-c3ccccc3)nc12 [Example 3, 7-Chloro-2-phenyl-N-(2-pyrimidinyl)-2H-pyrazolo[4,3-c]quinoline-4-ethanamine] | 79 ± 29 | inhibition at 1 µM [2]: 22%
5 | Clc1ccc2c(c1)nc(CCNc1ccc3ccccc3n1)c1cn(-c3ccccc3)nc12 [Example 4, 7-Chloro-2-phenyl-N-(2-quinolinyl)-2H-pyrazolo[4,3-c]quinoline-4-ethanamine] | ≤ 20 | 
6 | Fc1ccc(NCCc2nc3cc(Cl)ccc3c3nn(-c4ccccc4)cc23)cc1 [Example 5, 7-Chloro-N-(4-fluorophenyl)-2-phenyl-2H-pyrazolo[4,3-c]quinoline-4-ethanamine] | 14 | 
7 | Clc1ccc2c(c1)nc(CCNc1cnccn1)c1cn(-c3ccccc3)nc12 [Example 6, 7-Chloro-2-phenyl-N-(2-pyrazinyl)-2H-pyrazolo-[4,3-c]quinoline-4-ethanamine, hemihydrate] | 60 | 
8 | CCOC(=O)c1ccc(NCCc2nc3ccccc3c3nn(-c4ccccc4)cc23)cc1 [Example 7, 4-[[2-(2-phenyl-2H-pyrazolo[4,3-c]quinolin-4-yl)ethyl]amino]benzoic acid ethyl ester] | 83 | 
9 | N#Cc1ccc(N(CCc2nc3cc(Cl)ccc3c3nn(-c4ccccc4)cc23)C(=O)Nc2ccccc2)cc1 [Example 8, N-[2-(7-chloro-2-phenyl-2H-pyrazolo[4,3-c]quinolin-4-yl)ethyl]-N-(4-cyanophenyl)-N'-phenylurea] | ≤ 20 | 
10 | CCOC(=O)c1ccc(N(CCc2nc3cc(Cl)ccc3c3nn(-c4ccccc4)cc23)C(=O)Nc2ccccc2)cc1 [Example 9] | 49 | 
11 | N#Cc1ccc(N(CCc2nc3cc(Cl)ccc3c3nn(-c4ccccc4)cc23)C(=O)Nc2ccc(Cl)cc2)cc1 [Example 10, N'-(4-Chlorophenyl)-N-[2-(7-chloro-2-phenyl-2H-pyrazolo[4,3-c]quinolin-4-yl)ethyl]-N-(4-cyanophenyl)urea] | 51 | 
12 | CCOC(=O)c1ccc(N(CCc2nc3cc(Cl)ccc3c3nn(-c4ccccc4)cc23)C(=O)Nc2ccc(Cl)cc2)cc1 [Example 11, 4-[[[(4-chlorophenyl)amino]carbonyl][2-(7-chloro-2-phenyl-2H-pyrazolo[4,3-c]quinolin-4-yl)ethyl]amino]benzoic acid ethyl ester, hydrate] | 47 | 
13 | CS(=O)(=O)c1ccc(NCCc2nc3cc(Cl)ccc3c3nn(-c4ccccc4)cc23)cc1 [Example 12, 7-Chloro-N-[(4-methylsulfonyl)phenyl]-2-phenyl-2H-pyrazolo[4,3-c]quinoline-4-ethanamine] | 41 | 
14 | COc1ccc2c(c1)c(CC(=O)O)c(C)n2C(=O)c1ccc(Cl)cc1 [Indomethacin, reference compound] |  | ED50 [1]: 3.7 mg/kg

— patent publication US4748246A, “Pyrazolo(4,3-c)quinolines” (American Home Products Corporation, priority 1987, dated 1988)
